Data taken from US8337871B2, “Insecticide formulation” (Endura S.p.A., priority 2003, dated 2012).

Key:
[1] = system: cotton aphid strain (Aphis Gossypii); assay: Mortality assay on cotton aphid (example 19); conditions: for No. insects alive/no. total insects after 24 hours: in Agral 90, 24 hours
Procedure: In a mortality assay conducted as reported in the literature [Gunning R. V. et al., J. Econ. Entomol.
A mortality assay was performed as reported in example 4 on a cotton aphid strain (Aphis Gossypii) using the formulation described in example 10, dissolved in 10 ml Agral 90. Data obtained with fenvalerate dissolved in 10 ml Agral 90, and with placebo (10 ml Agral 90) are shown as a reference. In all tests, concentration values are referred to the amount of active principle.

[2] = system: Bemisia Tabaci strain (B-Biotype) (Silver leaf whitefly); assay: Mortality assay on Bemisia Tabaci (example 18); assay type: in vivo; conditions: in Agral 90, 48 hours
Procedure: (B-Biotype) (Silver leaf whitefly) using the formulation described in example 16, dissolved in 10 ml Agral 90.

[3] = system: Heicoverpa Armigera strain (Cotton Bollworm); assay: Mortality assay on Cotton Bollworm (example 20); assay type: in vivo; conditions: in Agral 90, 24 hours
Procedure: Data obtained with αcypermethrin dissolved in 10 ml Agral 90, and with a mixture of αcypermethrin/PBO dissolved in 10 ml of Agral 90 (the PBO content being 0.2% with respect to αcypermethrin) are shown as a reference.

[4] = concentration 0.01 % w/v active principle
[5] = concentration 0.1 % w/v active principle
[6] = concentration 0.0005 % w/v active principle
[7] = concentration 0.001 % w/v active principle

SMILES | mortality at 0.002 % strength ([1]; Aphis gossypii, 24 h) | mortality at 0.02 % strength ([1]; Aphis gossypii, 24 h) | mortality at 0.2 % strength ([1]; Aphis gossypii, 24 h) | No. insects alive/no. total insects after 24 hours ([1]; concentration 0.002 % w/v active principle) | No. insects alive/no. total insects after 24 hours ([1]; concentration 0.02 % w/v active principle) | No. insects alive/no. total insects after 24 hours ([1]; concentration 0.2 % w/v active principle) | Mortality % [2, 4] | No. insects alive/no. total insects after 48 hours [2, 4] | Mortality % [2, 5] | No. insects alive/no. total insects after 48 hours [2, 5] | Mortality % [3, 6] | No. insects alive/no. total insects after 24 hours [3, 6] | Mortality % [3, 7] | No. insects alive/no. total insects after 24 hours [3, 7]
CC(C)C(C(=O)OC(C#N)c1cccc(Oc2ccccc2)c1)c1ccc(Cl)cc1 (centres unmarked) [fenvalerate] | 0% | 20% | 40% | 10/10 | 8/10 | 6/10 | – | – | – | – | – | – | – | –
CC1(C)C(C=C(Cl)Cl)C1C(=O)OC(C#N)c1cccc(Oc2ccccc2)c1 (centres unmarked) [αcypermethrin] | – | – | – | – | – | – | 19% | 22/27 | 67% | 4/12 | 40% | 6/10 | 60% | 4/10
